One assay deals with T1, BRD4 BD1 (Homo sapiens, UniProt O60885).
T1 construct: made in house
Put plainly: AlphaScreen binding assay, BRD4 Bromodomain 1. Summed up: (§1)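 An AlphaScreen competition format was used with His-BRD4 BD1 or BD2 and biotin-H4 K5/8/12/16-acetyl peptide, each at matched final levels of 50 nM (BD1) or 100 nM (BD2). Incubation in HEPES/NaCl buffer with 0.1% BSA and 0.01% Triton X-100 ran ≥1 h before IC50 determination.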

A further assay concerns MV4-11 cells. The assay can be described thus: Oncology cell growth assay (3-day proliferation, CellTiter-Glo). The following applies: Homo sapiens, MV4-11, 72 h, AML cell line MV4-11, 72 hours, compounds grouped by IC50 range, read-out: MV4-11 IC50 (inhibition of proliferation, gIC50). It counts as cell-based. Summed up: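 MV4-11 AML cells (RPMI 1640, 10% FBS) plated at 3000 cells/well and exposed 72 h to compound at final 10 to 0.0045 μM (3-fold series). Viability read by CellTiter-Glo luminescence; gIC50 from four-parameter logistic fit between DMSO control and no-cell background.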

The target in another assay is T2, BRD4 BD2 (Homo sapiens, UniProt O60885).
T2 construct: made in house
Put plainly: AlphaScreen binding assay, BRD4 Bromodomain 2. Summed up: as §1
On the technique in general: Bead proximity is the source of the signal in Alpha formats.

Some results are limits rather than exact numbers.

Experimental findings from US10703764B2, “Benzopiperazine compositions as BET bromodomain inhibitors” (FORMA Therapeutics, Inc., priority 2013, dated 2020) are described below.

For the compound `CC(=O)N1c2ccc(-c3cnn(C4CCNCC4)c3)cc2N(c2nn(C)c3cnccc23)C[C@@H]1C` [Example I-182, (S)-1-(2-methyl-4-(1-methyl-1H-pyrazolo[3,4-c]pyridin-3-yl)-6-(1-(piperidin-4-yl)-1H-pyrazol-4-yl)-3,4-dihydroquinoxalin-1(2H)-yl)ethanone], the IC50 on BRD4 BD1 is 0.1 to 1 µM; in the assay on MV4-11 cells, 0.1 to 0.5 µM; on BRD4 BD2 it was below 0.05 µM.
Regarding `CC(=O)N1c2ccc(-c3ccc(C(N)=O)cc3)cc2N(C(=O)c2ccco2)C[C@@H]1C` [Example I-810], the IC50 on BRD4 BD1 was 0.1 to 1 µM; with MV4-11 cells, 0.1 to 0.5 µM; on BRD4 BD2 it was above 0.5 µM.
Turning to `CC(=O)N1c2ccc(-c3ccc(N4CCCS4(=O)=O)cc3)cc2N(C(=O)C2CC2)C[C@@H]1C` [Example I-439], the IC50 fell in the range of 0.1 to 1 µM on BRD4 BD1, 0.1 to 0.5 µM in the assay with MV4-11 cells and 0.05 to 0.5 µM at BRD4 BD2.
Regarding `CC(=O)N1c2ccc(-c3ccc(S(C)(=O)=O)cc3)cc2N(C(=O)Oc2cccc(C(F)(F)F)c2)C[C@@H]1C` [Example I-237], the IC50 on BRD4 BD1 is 1 to 10 µM; in the assay with MV4-11 cells, 0.1 to 0.5 µM; on BRD4 BD2, below 0.05 µM.
Take `CC(=O)N1c2ccc(-c3cnn(C4CCOCC4)c3)cc2N(C(=O)OC2CCC2)C[C@@H]1C` [Example I-39, (S)-cyclobutyl 4-acetyl-3-methyl-7-(1-(tetrahydro-2H-pyran-4-yl)-1H-pyrazol-4-yl)-3,4-dihydroquinoxaline-1(2H)-carboxylate]: the IC50 on BRD4 BD1 was 0.1 to 1 µM; in the assay on MV4-11 cells it was below 0.1 µM; at BRD4 BD2, below 0.05 µM.
Turning to `CC(=O)N1c2ccc(-c3cnn(C4CS(=O)(=O)C4)c3)cc2N(C(=O)OC2CCOCC2)C[C@@H]1C` [Example I-37, oxan-4-yl (3S)-4-acetyl-7-[1-(1,1-dioxo-1λ^6-thietan-3-yl)-1H-pyrazol-4-yl]-3-methyl-1,2,3,4-tetrahydroquinoxaline-1-carboxylate], the IC50 was in the range of 0.1 to 1 µM on BRD4 BD1, 0.1 to 0.5 µM with MV4-11 cells and 0.05 to 0.5 µM at BRD4 BD2.
As for `CC(=O)N1c2ccc(-c3ccc(NS(C)(=O)=O)c(C)c3)cc2N(C(=O)C2CC2)C[C@@H]1C` [Example I-1171], the results for the IC50 at BRD4 BD1, in the assay on MV4-11 cells and on BRD4 BD2 were 0.1 to 1 µM, 0.1 to 0.5 µM and 0.05 to 0.5 µM, respectively.
For `CCOC(=O)N1C[C@H](C)N(C(C)=O)c2ccc(-c3cccc(N4CCCS4(=O)=O)c3)cc21` [Example I-1162], the IC50 at BRD4 BD1 was 0.1 to 1 µM; in the assay with MV4-11 cells, above 0.5 µM; at BRD4 BD2, 0.05 to 0.5 µM.
Consider `CNC(=O)CN(C)C(=O)c1ccc(-c2ccc3c(c2)N(C(=O)OC(C)C)C[C@H](C)N3C(=O)OC)cc1` [Example I-563], for which the IC50 at BRD4 BD1 is 0.1 to 1 µM; with MV4-11 cells, 0.1 to 0.5 µM; on BRD4 BD2, 0.05 to 0.5 µM.
The corresponding values for `CC(=O)N1c2ccc(-c3ccccc3F)cc2N(C(=O)COc2ccccc2)C[C@@H]1C` [Example I-794] are 1 to 10 µM, above 0.5 µM and above 0.5 µM.
As to `CC(=O)N1c2ccc(-c3cnc(N)cn3)cc2N(C(=O)c2ccco2)C[C@@H]1C` [Example I-413], the values for the IC50 at BRD4 BD1, in the assay on MV4-11 cells and on BRD4 BD2 were 1 to 10 µM, 0.1 to 0.5 µM and below 0.05 µM, respectively.
The corresponding values for `CC(=O)N1c2ccc(-c3ccc(NS(=O)(=O)C4CC4)cc3)cc2N(C(=O)c2ccco2)C[C@@H]1C` [Example I-287] are 0.1 to 1 µM, below 0.1 µM and below 0.05 µM.
As to `CC(=O)N1c2ccc(-c3ccc(S(=O)(=O)CC4CC4)cc3)cc2N(C(=O)OC(C)C)C[C@@H]1C` [Example I-1077], the IC50 was 1 to 10 µM at BRD4 BD1, 0.1 to 0.5 µM in the assay on MV4-11 cells and 0.05 to 0.5 µM at BRD4 BD2.
In the case of `CC(C)OC(=O)N1C[C@H](C)N(C(=O)C2CC2)c2ccc(-c3cnn(C[C@@H]4CCNC4)c3)cc21` [Example I-689], the values for the IC50 on BRD4 BD1, in the assay on MV4-11 cells and at BRD4 BD2 were 0.1 to 1 µM, above 0.5 µM and 0.05 to 0.5 µM, respectively.
For the compound `CC(=O)N1c2ccc(-c3cccc(-c4ccccc4)c3)cc2N(C(=O)c2ccco2)C[C@@H]1C` [Example I-793], the IC50 on BRD4 BD1 was 1 to 10 µM; with MV4-11 cells it was above 0.5 µM; at BRD4 BD2, 0.05 to 0.5 µM.
As to `Cc1noc(C)c1Cn1cc(-c2ccc3c(c2)N(C(=O)OC(C)C)C[C@H](C)N3C(=O)C2CC2)cn1` [Example I-617], the figures for the IC50 at BRD4 BD1, with MV4-11 cells and on BRD4 BD2 were 0.1 to 1 µM, 0.1 to 0.5 µM and 0.05 to 0.5 µM, respectively.
For the compound `CC(=O)N1c2ccc(-c3cnn(C4CNC4)c3)cc2N(C(=O)OC2CCCCC2)C[C@@H]1C` [Example I-1304], the IC50 is below 0.1 µM on BRD4 BD1, below 0.1 µM in the assay with MV4-11 cells and below 0.05 µM at BRD4 BD2.
As for `COC(=O)N1c2ccc(-c3cnn(CC(N)=O)c3)cc2N(C(=O)OC(C)C)C[C@@H]1C` [Example I-319], the figures for the IC50 at BRD4 BD1, with MV4-11 cells and on BRD4 BD2 were 0.1 to 1 µM, above 0.5 µM and 0.05 to 0.5 µM, respectively.
For the compound `CC(=O)N1c2ccc(-c3cnn(CCN4CCCS4(=O)=O)c3)cc2N(C(=O)OC(C)C)C[C@@H]1C` [Example I-597], the IC50 on BRD4 BD1 fell in the range of 0.1 to 1 µM; with MV4-11 cells, 0.1 to 0.5 µM; at BRD4 BD2, 0.05 to 0.5 µM.
Consider `CNS(=O)(=O)c1cccc(-c2ccc3c(c2)N(C(=O)OC2CCCCC2)C[C@H](C)N3C(C)=O)c1` [Example I-1253], for which the IC50 at BRD4 BD1 was in the range of 0.1 to 1 µM; in the assay on MV4-11 cells it was 0.1 to 0.5 µM; on BRD4 BD2 it was 0.05 to 0.5 µM.
Turning to `CC(=O)N1c2ccc(-c3ccc(S(=O)(=O)NC4CC4)cc3)cc2N(C(=O)c2ccco2)C[C@@H]1C` [Example I-268], the IC50 on BRD4 BD1 was 0.1 to 1 µM; in the assay on MV4-11 cells, below 0.1 µM; at BRD4 BD2, below 0.05 µM.
For the compound `CC(=O)N1c2ccc(-c3cccc(S(=O)(=O)N(C)C)c3)cc2N(C(=O)C2CC2)C[C@@H]1C` [Example I-1046], the results for the IC50 at BRD4 BD1, with MV4-11 cells and on BRD4 BD2 were 1 to 10 µM, above 0.5 µM and 0.05 to 0.5 µM, respectively.
Take `COCCn1cc(-c2ccc3c(c2)N(C(=O)c2ccco2)C[C@H](C)N3C(C)=O)cn1` [Example I-18, (S)-1-(4-(furan-2-carbonyl)-6-(1-(2-methoxyethyl)-1H-pyrazol-4-yl)-2-methyl-3,4-dihydroquinoxalin-1(2H)-yl)ethanone]: the values for the IC50 at BRD4 BD1, with MV4-11 cells and on BRD4 BD2 were 0.1 to 1 µM, 0.1 to 0.5 µM and below 0.05 µM, respectively.
Take `CC(=O)N1c2ccc(-c3cnn(C4CNC4)c3)cc2N(C(=O)C2CC2)C[C@@H]1C` [Example I-360]: the IC50 on BRD4 BD1 is below 0.1 µM; in the assay with MV4-11 cells, 0.1 to 0.5 µM; at BRD4 BD2, below 0.05 µM.
Consider `CC(=O)N1c2ccc(-c3cnn(C4CC4)c3)cc2N(C(=O)OC2CCC(F)(F)CC2)C[C@@H]1C` [Example I-33, (S)-4,4-difluorocyclohexyl 4-acetyl-7-(1-cyclopropyl-1H-pyrazol-4-yl)-3-methyl-3,4-dihydroquinoxaline-1(2H)-carboxylate], for which the IC50 lay within 0.1 to 1 µM at BRD4 BD1, 0.1 to 0.5 µM in the assay on MV4-11 cells and 0.05 to 0.5 µM on BRD4 BD2.
As to `COC(=O)N1c2ccc(-c3cnn(C4CCNCC4)c3)cc2N(C(=O)OC(C)C)C[C@@H]1C` [Example I-355], the IC50 on BRD4 BD1 lay in the range of 0.1 to 1 µM; in the assay with MV4-11 cells, 0.1 to 0.5 µM; on BRD4 BD2, 0.05 to 0.5 µM.
In the case of `CC(=O)Nc1cc2c(cc1Br)N(C(=O)OC(C)C)C[C@H](C)N2C(C)=O` [Example I-203, Isopropyl (S)-6-acetamido-4-acetyl-7-bromo-3-methyl-3,4-dihydro quinoxaline-1(2H)-carboxylate], the results for the IC50 at BRD4 BD1, with MV4-11 cells and on BRD4 BD2 were 1 to 10 µM, above 0.5 µM and above 0.5 µM, respectively.
On to `CC(=O)N1c2ccc(-c3cnn(CCn4cncn4)c3)cc2N(C(=O)OC(C)C)C[C@@H]1C` [Example I-139, (S)-isopropyl 7-(1-(2-(1H-1,2,4-triazol-1-yl)ethyl)-1H-pyrazol-4-yl)-4-acetyl-3-methyl-3,4-dihydroquinoxaline-1 (2H)-carboxylate], for which the values for the IC50 on BRD4 BD1, with MV4-11 cells and at BRD4 BD2 were 0.1 to 1 µM, 0.1 to 0.5 µM and below 0.05 µM, respectively.
As to `COC(=O)N1c2ccc(-c3cnn(C4CC4)c3)cc2N(C(=O)OCC2CC2)C[C@@H]1C` [Example I-996], the figures for the IC50 at BRD4 BD1, in the assay on MV4-11 cells and on BRD4 BD2 were 0.1 to 1 µM, above 0.5 µM and above 0.5 µM, respectively.
For the compound `CC(=O)N1c2ccc(-c3cnn(C4CC4)c3)cc2N(C(=O)Oc2ccc(C)cc2)C[C@@H]1C` [Example I-264], the IC50 was 0.1 to 1 µM at BRD4 BD1, below 0.1 µM in the assay with MV4-11 cells and below 0.05 µM on BRD4 BD2.
As to `CC(=O)N1c2ccc(-c3ccc(S(=O)(=O)NC(C)(C)C)cc3)cc2N(C(=O)OC(C)C)C[C@@H]1C` [Example I-1130], the IC50 was 0.1 to 1 µM at BRD4 BD1, 0.1 to 0.5 µM in the assay with MV4-11 cells and 0.05 to 0.5 µM at BRD4 BD2.
For `CC(=O)N1c2ccc(-c3cnn(C4CC4)c3)cc2N(C(=O)Oc2cccc3ccc(C)nc23)C[C@@H]1C` [Example I-515], the IC50 on BRD4 BD1 was 0.1 to 1 µM; in the assay on MV4-11 cells, below 0.1 µM; at BRD4 BD2, 0.05 to 0.5 µM.
The corresponding values for `COC(=O)N1c2ccc(-c3cnn(CC(C)(C)O)c3)cc2N(C(=O)OC(C)C)C[C@@H]1C` [Example I-329] are 0.1 to 1 µM, 0.1 to 0.5 µM and 0.05 to 0.5 µM.
Turning to `CC(=O)N1c2ccc(-c3ccc(F)c(S(C)(=O)=O)c3)cc2N(C(=O)C2CC2)C[C@@H]1C` [Example I-1098], the IC50 is 1 to 10 µM on BRD4 BD1, above 0.5 µM in the assay on MV4-11 cells and 0.05 to 0.5 µM at BRD4 BD2.
In the case of `CCOC(=O)N1C[C@H](C)N(C(C)=O)c2ccc(-c3cc(N4CCCS4(=O)=O)cc(C(F)(F)F)c3)cc21` [Example I-1165], the IC50 on BRD4 BD1 is 1 to 10 µM; with MV4-11 cells, above 0.5 µM; on BRD4 BD2 it was 0.05 to 0.5 µM.
